In ChEMBL document CHEMBL5325426, “Structure-based discovery of potent USP28 inhibitors derived from Vismodegib” (Eur J Med Chem, 2023):

Tests used:
[1] = target: T1, Ubiquitin carboxyl-terminal hydrolase 28 (Homo sapiens, UniProt Q96RU2); test: Inhibition of USP28 (149 to 703 residues) (unknown origin) expressed in Escherichia coli BL21 (DE3) using Ub-AMC as substrate by fluorescence based analysis
T1 sequence (Q96RU2 whole entry): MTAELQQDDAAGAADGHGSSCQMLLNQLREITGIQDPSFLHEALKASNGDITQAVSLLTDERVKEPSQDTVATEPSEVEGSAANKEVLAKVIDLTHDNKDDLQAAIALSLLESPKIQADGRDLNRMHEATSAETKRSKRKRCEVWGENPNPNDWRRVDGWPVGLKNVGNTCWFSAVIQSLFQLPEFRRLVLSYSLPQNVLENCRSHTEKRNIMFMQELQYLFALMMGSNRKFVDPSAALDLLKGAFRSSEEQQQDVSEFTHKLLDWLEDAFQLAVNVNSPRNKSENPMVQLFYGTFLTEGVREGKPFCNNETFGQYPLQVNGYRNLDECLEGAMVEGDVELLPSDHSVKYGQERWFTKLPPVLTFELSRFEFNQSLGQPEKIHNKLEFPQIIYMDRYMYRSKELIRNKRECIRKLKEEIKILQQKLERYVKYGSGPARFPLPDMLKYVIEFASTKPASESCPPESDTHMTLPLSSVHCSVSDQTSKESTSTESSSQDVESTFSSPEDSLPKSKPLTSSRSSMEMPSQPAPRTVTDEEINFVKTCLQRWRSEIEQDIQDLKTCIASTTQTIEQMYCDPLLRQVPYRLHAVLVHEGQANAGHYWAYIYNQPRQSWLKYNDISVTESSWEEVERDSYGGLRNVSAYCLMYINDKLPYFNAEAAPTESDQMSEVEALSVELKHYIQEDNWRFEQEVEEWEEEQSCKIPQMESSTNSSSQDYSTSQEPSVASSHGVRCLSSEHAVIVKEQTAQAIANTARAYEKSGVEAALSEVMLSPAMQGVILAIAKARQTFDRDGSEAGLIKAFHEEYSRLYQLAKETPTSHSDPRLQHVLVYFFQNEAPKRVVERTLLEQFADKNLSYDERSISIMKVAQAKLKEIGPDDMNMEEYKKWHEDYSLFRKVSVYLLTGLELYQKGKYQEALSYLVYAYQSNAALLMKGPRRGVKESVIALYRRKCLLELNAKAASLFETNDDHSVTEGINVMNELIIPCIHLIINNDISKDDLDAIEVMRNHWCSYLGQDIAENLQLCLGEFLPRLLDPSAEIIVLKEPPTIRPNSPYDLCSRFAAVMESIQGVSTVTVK

HCT-116 = test: Antiproliferative activity against human HCT-116 cells assessed as cell growth inhibition incubated for 3 days by SRB assay; type: functional, cell-based; details: HCT-116, 72 h
NCI-H226 = test: Antiproliferative activity against human NCI-H226 cells assessed as cell growth inhibition incubated for 3 days by SRB assay; type: functional, cell-based; details: NCI-H226, 72 h
Calu-1 = test: Antiproliferative activity against human Calu-1 cells assessed as cell growth inhibition incubated for 3 days by SRB assay; type: functional, cell-based; details: Calu-1, 72 h
LS174T = test: Antiproliferative activity against human LS174T cells assessed as cell growth inhibition incubated for 3 days by SRB assay; type: functional, cell-based; details: 72 h

Row | SMILES | IC50 [1] | further results
1 | CS(=O)(=O)c1ccc(C(=O)Nc2cc(Cl)cc(-c3ccc(CN)cc3)c2)c(Cl)c1 | 1.13 µM | 
2 | CS(=O)(=O)c1ccc(C(=O)Nc2ccc(Cl)c(-c3ccc(CN)cn3)c2)c(Cl)c1 | 2.13 µM | 
3 | Cc1ccc2c(N)c(C(=O)N[C@H]3CCc4cc(N5CC6CCC(C5)N6)ccc4C3)sc2n1 | 0.11 µM | IC50 (HCT-116): 0.19 µM; IC50 (NCI-H226): 0.15 µM; IC50 (Calu-1): 0.32 µM; IC50 (LS174T): 0.07 µM
4 | CS(=O)(=O)c1ccc(C(=O)Nc2ccc(Cl)c(-c3ccc(CN)cc3)c2)c(Cl)c1 | 0.36 µM | 
5 | CS(=O)(=O)c1ccc(C(=O)Nc2ccc(Cl)c(-c3ccccc3N)c2)c(Cl)c1 | 8.58 µM | 
6 | CS(=O)(=O)c1ccc(C(=O)Nc2ccc(Cl)c(-c3ccc(N4CCNCC4)cc3)c2)c(Cl)c1 | 4.24 µM | 
7 | CS(=O)(=O)c1ccc(C(=O)Nc2ccc(Cl)c(-c3cccc(N)c3)c2)c(Cl)c1 | 11 µM | 

Further compounds by falling IC50 [1], results first:

Row | IC50 [1] | SMILES | further results
8 | 5.68 µM | CS(=O)(=O)c1ccc(C(=O)Nc2ccc(Cl)c(-c3ccc(N)cc3)c2)c(Cl)c1 | 
9 | 2.94 µM | COc1ccc(-c2cc(NC(=O)c3ccc(S(C)(=O)=O)cc3Cl)ccc2Cl)cc1 | 
10 | 2.82 µM | CN(C)c1ccc(-c2cc(NC(=O)c3ccc(S(C)(=O)=O)cc3Cl)ccc2Cl)cc1 | 
11 | 0.15 µM | CS(=O)(=O)c1ccc(C(=O)Nc2ccc(Cl)c(-c3cccc(CN)c3)c2)c(Cl)c1 | 
